Here are results for one molecule from patent US12384751B2, “Allosteric activators of the ALPHA1A-adrenergic receptor” (The Cleveland Clinic Foundation, priority 2019, dated 2025).

“Also recorded” adds a separate entry of the source.

Data set [1] is described as follows: Body weight of 3×TG AD mice. In kind it is in vivo, mouse. As to conditions: female 3×TG mice. The protocol:
(§1) AD mice were first randomized and sorted into control or treatment groups. […] 14 AD mice from each treatment group received Compound 3 in the drinking water (2.611 mg/kg/bw) to deliver a daily dose near the peak potentiation of the cAMP response in the brain at 10^−8M based upon the PAM assay and pharmacokinetics. This was achieved by adding Compound 3 to the drinking water at 32 uM, assuming the mice drink 6 ml/day, with only 10% of bioavailable drug reaching the brain. The drug was administered in the drinking water for 10 months, starting at age 2 months, then subjected to either different cognitive behavioral tests or electrophysiology at age 12 months to maximize the manifestations of AD symptoms in these mice. Mice are maintained on the drug for the duration of the studies and blinded to the operator.
(§2) At 12 months of age mice were subjected to long term potentiation (LTP) (FIG. 25).
It is known that females in the 3×TG AD mouse model have higher penetrance for the disease than males so an increase in body weight may be a general sign of better health. Weight loss and muscle loss are well-known symptoms associated with AD (91-93).

Data set [2] has as its target T1, α1D-AR (Homo sapiens, UniProt P25100).
T1 construct: expressed in transfected cells; host or cells: Rat-1 fibroblast cells
T1 sequence (P25100 1-572): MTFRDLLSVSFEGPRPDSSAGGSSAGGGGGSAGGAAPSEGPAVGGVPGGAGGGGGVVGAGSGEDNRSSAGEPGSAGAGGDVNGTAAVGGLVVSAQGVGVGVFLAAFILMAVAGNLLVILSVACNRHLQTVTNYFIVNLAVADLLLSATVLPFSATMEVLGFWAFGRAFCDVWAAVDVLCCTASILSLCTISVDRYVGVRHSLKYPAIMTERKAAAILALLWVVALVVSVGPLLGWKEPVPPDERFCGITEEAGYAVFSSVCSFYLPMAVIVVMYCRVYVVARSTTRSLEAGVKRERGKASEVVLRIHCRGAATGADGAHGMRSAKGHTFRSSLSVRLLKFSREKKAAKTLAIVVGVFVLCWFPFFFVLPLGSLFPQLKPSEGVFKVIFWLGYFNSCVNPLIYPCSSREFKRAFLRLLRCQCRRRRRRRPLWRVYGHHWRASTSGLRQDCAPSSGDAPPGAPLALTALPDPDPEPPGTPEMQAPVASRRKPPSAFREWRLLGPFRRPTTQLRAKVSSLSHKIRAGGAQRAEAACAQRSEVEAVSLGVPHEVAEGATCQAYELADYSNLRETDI
As to the kind of experiment: Competition binding with [125I]HEAT at α1D-AR. The protocol: (§3) Competition binding assays: These compounds were characterized for their ligand binding properties at the α1-AR subtypes. The binding affinities of Compounds 1-10 were determined in a series of competition-binding experiments with the α1-AR-selective antagonist [^125I]HEAT as the radioligand. Assays were performed in duplicate in HEM buffer, in a total assay volume of 1000 μl. Radioligand binding assays are composed of 5 ug of membranes, harvested from Rat-1 fibroblast cells expressing only one of the alpha1-AR subtypes, HEM buffer containing GTP (composed of 20 mM HEPES, pH 7.4, 1.4 mM EGTA, 12.5 mM MgCl2, pH to 7.4), 0.5 mM GTP, 35-80 pM^125I-HEAT, and various doses of norepinephrine or epinephrine and incubated with shaking at 25° C. for 1-2 hours. The above conditions will convert all the conformations of the receptor into a single low affinity site. To show both high and low affinity sites of the receptor (typically seen with GPCR agonists), the GTP is removed from the binding buffer. Nonspecific binding was determined experimentally in the presence of 10^−4 M phentolamine. Unbound radioactivity was separated from membrane-bound radioactivity by filtration through Whatman GF/C filter paper. […] Bound radioactivity remaining on the filters was counted on an ICN gamma counter operating at 79.8% efficiency. Data are analyzed using Graphpad Prism.

For data set [3], the system named is 3×TG Alzheimer's Disease (AD) mouse model. As to conditions: in vivo. The protocol:
as §1

For data set [4], the target named is T1, α1D-AR. The data set can be described thus: Effect of compound on binding affinity of norepinephrine at α1D-AR. To be noted: 10^−5M. The protocol:
as §3, with “Prism. […]” for “Prism.”

A short description of data set [5]: Mean arterial blood pressure in 3×TG AD mice. In kind it is in vivo. As to conditions: 3×TG mice. The method, then: A 10 month continuous dose study was performed in the 3×TG Alzheimer's Disease (AD) mouse model containing the triple mutations (APP(swe), PS1(M146V), tau(P301L)) from Jackson labs. Synaptic dysfunction and LTP deficits manifests in an age-related manner beginning from 2-6 months that occurs prior to Aβ pathology (87, herein incorporated by reference). Hippocampal-dependent cognitive impairments begin at 4-6 months depending upon the strain (88-89, herein incorporated by reference). 3×Tg mice have documented cognitive deficits in the Morris water maze (88) and Barnes maze (9, 90). Deficits in long-term synaptic plasticity correlate with the accumulation of intraneuronal Aβ (88). 3×Tg have decreased neurogenesis in both SGZ and SVZ before Aβ pathology and treatments that increased neurogenesis improved memory in 3×TG mice (18-19, herein incorporated by reference).
as §1, §2
Assessment: Blood pressure. […]

Setting [6] is: drinking water 2.611 mg/kg/bw, N=13-16.

With `CC(C)Cc1c(OCC2=NCCN2)cccc1N(C)S(C)(=O)=O` [Compound 3, N-[3-(4,5-Dihydro-1H-imidazol-2-ylmethoxy)-2-isobutyl-phenyl]-N-methyl-methanesulfonamide], the “body weight vs untreated” value in data set [1] is given as “increased body weight; also recorded: retained or gained body weight”. In data set [2], the “specific binding at the α1D-AR” value was “little, if any, specific binding; also recorded: no affinity”. In addition, in data set [3], the “death rates between groups” value was “no differences in the death rates”. The “effect on affinity of norepinephrine at the α1D-AR” value in data set [4] is listed as “no effect; also recorded: does not increase the affinity of norepinephrine”. For the same molecule, the “blood pressure, treated vs untreated” value in data set [5] is “no significant differences; also recorded: does not affect blood pressure”. Moreover, in data set [5] (setting [6]), the “mean arterial blood pressure, treated females (F)” value is listed as 85±2.4 and the “mean arterial blood pressure, treated males (M)” value is recorded as 97±3.
